Reference: patent US12710366B2, “Dyes undergoing changes in color and fluorescence upon binding of organic oxo compounds” (Bundesrepublik Deutschland, vertreten durch den …, priority 2020, dated 2026)
Several values for one entry are separate records, joined by “and”; a condition that tells them apart may be missing. Equal values may be shown once. Entries after “also recorded” stand apart in the source; their conditions may differ.

Key:
[1] = Spectroscopic titration of compound 19 with ENOX-TBA in MeCN; assay type: binding
Procedure: (§1) Absorption spectra and spectrophotometric titrations were acquired with a Specord 210 Plus spectrometer (Analytik Jena), using dilute solutions with an absorbance of about 0.1 at the absorption maximum. The binding constants were assessed with BindFit v0.5 software. Fluorescence spectra and titrations were carried out on a FluoroMax 4 spectrofluorometer (Horiba Jobin-Yvon).
This example illustrates the titration of the thiourea-based compound 19 with the ammonium salt of the antibiotic enoxacin (ENOX-TBA) in MeCN. […] The bathochromic shift of the absorption band upon binding can be rationalized considering that the donor-acceptor interaction between the thiourea and benzoxadiazole is reinforced with the charge donation of the electron-rich carboxylate anion to the thiourea through such supramolecular interactions. […] The estimated binding constant for this interaction was calculated to be K19/ENOX-TBA=[…] in MeCN.

[2] = UV/vis absorption and emission spectra (Stokes shift); assay type: physicochemical
Procedure: as §1
Normalized UV/vis absorption and emission (λex=465 nm) spectra at a fixed concentration of thiourea-based compound 19 were recorded in CHCl3, toluene, acetonitrile (MeCN) and methanol (MeOH), yielding Stokes shifts between 160 nm and 230 nm, respectively. This positive solvatochromism is ascribed to the effective intramolecular charge transfer from the two electron-donating groups (thiourea and tertiary amine) to the electron-accepting benzodiazole as the solvent polarity increases (FIG. 1-4). […]
Normalized UV/vis absorption and emission spectra of guanidinium-based compound 25 at a fixed concentration were recorded in CHCl3 and MeCN. Sizable Stokes shifts of 180 nm and 210 nm were observed (FIGS. 8 and 9) as a result of the effective intramolecular charge transfer process established from the two electron-donating groups (guanidinium and tertiary amine) to the electron-accepting benzodiazole in solvents of different polarity.

[3] = Solubility in polar solvents; assay type: physicochemical; conditions: polar organic solvents and solvent/water mixtures
[4] = Spectroscopic titration of compound 25 with TBA-OAc; assay type: binding; conditions: for change of UV/vis absorption band upon titration with TBA-OAc / change of fluorescence emission upon titration with TBA-OAc: c[25]=9×10^−6 M
Procedure: as §1
The bathochromic shift of the absorption band upon binding can be rationalized considering that the donor-acceptor interaction between the guanidinium and the benzoxadiazole is reinforced by a charge donation of the electron-rich acetate anion to the guanidinium.

SMILES	interaction with oxoanions (e.g. ENOX-TBA) [1]	change of UV/vis absorption band upon titration with ENOX-TBA ([1]; MeCN, c[19]=2.2×10^−5 M)	absorption band position ([2]; in MeCN) [nm]	Stokes shift ([2]; in acetonitrile (MeCN))	Stokes shift ([2]; in chloroform (CHCl3))	Stokes shift ([2]; in methanol (MeOH)) [nm]	Stokes shift ([2]; in toluene) [nm]	solubility [3]	change of UV/vis absorption band upon titration with TBA-OAc ([4]; CHCl3)	change of fluorescence emission upon titration with TBA-OAc ([4]; CHCl3)	change of UV/vis absorption band upon titration with TBA-OAc ([4]; MeCN)	change of fluorescence emission upon titration with TBA-OAc ([4]; MeCN)	interaction with oxoanions (e.g. TBA-OAc) ([4]; non-polar and polar solvents)	absorption band position ([2]; CHCl3 and MeCN) [nm]
C=C(C)C(=O)OCCN(C)c1ccc(NC(=S)NC(=O)c2ccccc2)c2nonc12 [Compound 19]	can interact	decrease and red shift	462	> 180 nm	> 170 nm	> 230	> 160	–	–	–	–	–	–	–
C=C(C)C(=O)OCCN(C)c1ccc(NC(=N)NC(=O)c2ccccc2)c2nonc12 [Compound 23, 2-((7-(3-benzoylguanidino)benzo[c][1,2,5]oxadiazol-4-yl)(methyl)amino)ethyl methacrylate]	–	–	–	–	–	–	–	soluble in polar organic solvents and polar organic solvent/water mixtures	–	–	–	–	–	–
C=C(C)C(=O)OCCN(C)c1ccc(NC(=N)NC(=O)c2ccccc2)c2nonc12.Cl [Compound 25, benzamido((7-((2-(methacrycrykoyloxy)ethyl)(methyl)amino)benzo[c][1,2,5]oxadiazol-4-yl)amino)methaniminium chloride]	–	–	–	210 nm and > 210 nm	180 nm and > 180 nm	–	–	–	decrease and a red shift	red shift and decrease; also recorded: quenching and a red shift; also recorded: decrease and red shift	decrease and a red shift	red shift and decrease; also recorded: quenching and a red shift; also recorded: decrease and red shift	can interact	450
